# “Also recorded” adds a separate entry of the source.
# Columns and labels:
# Type in all cases: cell-based, human
# [1] = system: OCI-LY7 cells; assay: Cell viability assay (CellTiter-Glo) in OCI-LY7 cells; details: for IC50: Homo sapiens, 120 h, OCI-LY7 cells (EZH2-wild type), in the presence of 1 μM EPZ-6438, 5 days; for cell viability of the combination versus the compound alone (FIG. 2B, 2D): OCI-LY7, combination with any of CC-122, CC-220, or CC-92480 (so in the source); for cell viability, response of the cells to the single agent: OCI-LY7, single agent, 5 days
# Description: (§1) Experiments were performed in cultured human cells to assess the efficacy of combined EZH2 inhibitor and immunomodulatory drug (e.g., an IMiD) treatment using an EZH2-mutant DLBCL cell line, SU-DHL-10, and an EZH2-wild type line, OCI-LY7. Cells were purchased from Nanjing Cobioer Biotechnology. SU-DHL-10 and OCI-LY7 cells were cultured at 37° C. with 5% CO2 in RPMI 1640 Medium supplemented with 10% fetal bovine serum. Cells were authenticated using the short tandem repeat (STR) assays. Mycoplasma test results were negative.
# (§2) The cultured cells were seeded at a density of 5000 cells per well in 96-well assay plates and treated with test compounds at 10 μM followed by a 11-point 3-fold serial dilution or an 8-point 10-fold serial dilution. Cell viability was determined after 5 days, using the CellTiter-Glo assay kit (Promega) according to the manufacturer's instructions. The dose-response curves were determined and IC50 values were calculated using the GraphPad Prism software following a nonlinear regression (least squares fit) method. Each data point in the figure represents the mean values of at least two technical replicates ± standard deviation.
# (§3) Cells were treated with EZH2 inhibitors in the presence of IMiDs at concentrations sufficient to induce degradation of IKZF1 and IKZF3 but not enough to kill cells. CC-122 and CC-220 were tested at a concentration of 1 μM; CC-92480 and CFT7455 were tested at a concentration of 1 nM; and CC-99282 was tested at a concentration of 10 nM.
# [2] = system: SU-DHL-10 cells; assay: Cell viability assay (CellTiter-Glo) in SU-DHL-10 cells; details: for IC50: Homo sapiens, SU-DHL10, 120 h, SU-DHL-10 cells (EZH2-mutant DLBCL), in the presence of 1 μM EPZ-6438, 5 days; for cell viability of the combination versus the compound alone (FIG. 2A, 2C): SU-DHL-10, combination with any of CC-122, CC-220, or CC-92480 (so in the source); for cell viability, response of the cells to the single agent: SU-DHL-10, single agent
# Description: as §1, §2, §3
# [3] = system: SU-DHL-10 cells; assay: as above
# [4] = OCI-LY7, in the presence of 1 μM C24, 5 days
# [5] = OCI-LY7, in the presence of 1 μM CPI-1205, 5 days
# [6] = OCI-LY7, in the presence of 1 μM EPZ-6438, 5 days
# [7] = OCI-LY7, in the presence of 1 μM GSK126, 5 days
# [8] = SU-DHL-10, in the presence of 1 μM CPI-1205, 5 days
# [9] = SU-DHL-10, in the presence of 1 μM EPZ-6438, 5 days
# [10] = SU-DHL-10, in the presence of 1 μM GSK126, 5 days
# [11] = SU-DHL-10, in the presence of C24 (1 μM with CC-122, 2 μM with CC-220), 5 days
# [12] = OCI-LY7, in the presence of 1 nM CFT7455, 5 days
# [13] = OCI-LY7, in the presence of 10 nM CC-99282, 5 days
# [14] = SU-DHL-10, in the presence of 1 nM CFT7455, 5 days
# [15] = SU-DHL-10, in the presence of 10 nM CC-99282, 5 days
# [16] = OCI-LY7, in the presence of 1 nM CC-92480, 5 days
# [17] = OCI-LY7, in the presence of 1 μM CC-122, 5 days
# [18] = OCI-LY7, in the presence of 1 μM CC-220, 5 days
# [19] = SU-DHL-10, in the presence of 1 nM CC-92480, 5 days
# [20] = SU-DHL-10, in the presence of 1 μM CC-122, 5 days
# [21] = SU-DHL-10, in the presence of 1 μM CC-220, 5 days
compound,measurement,setting,value
"Cc1nc2cccc(N)c2c(=O)n1C1CCC(=O)NC1=O (stereo not shown) [CC-122, avadomide]",IC50,[1],380 nM
same,"cell viability of the combination versus the compound alone (FIG. 2B, 2D)",[1],lowered cell viability more than treatment with CC-122 alone
same,cell viability (sensitivity of the cells to the compound in combination),[1]; [4],highly sensitive
same,cell viability (sensitivity of the cells to the compound in combination),[1]; [5],highly sensitive
same,cell viability (sensitivity of the cells to the compound in combination),[1]; [6],highly sensitive
same,cell viability (sensitivity of the cells to the compound in combination),[1]; [7],highly sensitive
same,"cell viability, response of the cells to the single agent",[1],modestly responsive
same,IC50,[2],89 nM
same,"cell viability of the combination versus the compound alone (FIG. 2A, 2C)",[2],lowered cell viability more than treatment with CC-122 alone
same,cell viability (sensitivity of the cells to the compound in combination),[2]; [8],highly sensitive
same,cell viability (sensitivity of the cells to the compound in combination),[2]; [9],highly sensitive
same,cell viability (sensitivity of the cells to the compound in combination),[2]; [10],highly sensitive
same,cell viability (sensitivity of the cells to the compound in combination),[2]; [11],highly sensitive
same,"cell viability, response of the cells to the single agent",[2]; 5 days,refractory
"O=C1CC[C@H](N2Cc3c(OCc4ccc(CN5CCOCC5)cc4)cccc3C2=O)C(=O)N1 [CC-220, iberdomide]",IC50,[1],30 nM
same,"cell viability of the combination versus the compound alone (FIG. 2B, 2D)",[1],lowered cell viability more than treatment with CC-220 alone
same,cell viability (sensitivity of the cells to the compound in combination),[1]; [4],highly sensitive
same,cell viability (sensitivity of the cells to the compound in combination),[1]; [5],highly sensitive
same,cell viability (sensitivity of the cells to the compound in combination),[1]; [6],highly sensitive
same,cell viability (sensitivity of the cells to the compound in combination),[1]; [7],highly sensitive
same,"cell viability, response of the cells to the single agent",[1],modestly responsive
same,IC50,[2],9.5 nM
same,"cell viability of the combination versus the compound alone (FIG. 2A, 2C)",[2],lowered cell viability more than treatment with CC-220 alone
same,cell viability (sensitivity of the cells to the compound in combination),[2]; [8],highly sensitive
same,cell viability (sensitivity of the cells to the compound in combination),[2]; [9],highly sensitive
same,cell viability (sensitivity of the cells to the compound in combination),[2]; [10],highly sensitive
same,cell viability (sensitivity of the cells to the compound in combination),[2]; [11],highly sensitive
same,"cell viability, response of the cells to the single agent",[2]; 5 days,refractory
"O=C1CC[C@H](N2C(=O)c3cccc(NCc4ccc(CN5CC(N6CCOCC6)C5)cc4F)c3C2=O)C(=O)N1 [CC-99282, (S)-2-(2,6-dioxopiperidin-3-yl)-4-((2-fluoro-4-((3-morpholinoazetidin-1-yl)methyl)benzyl)amino)isoindoline-1,3-dione]",cell viability (sensitivity of the cells to the compound in combination),"[1]; OCI-LY7, in the presence of 100 nM CPI-0209",lowered cell viability more than treatment with CC-99282 alone
same,cell viability (sensitivity of the cells to the compound in combination),"[1]; OCI-LY7, in the presence of 100 nM SHR2554",lowered cell viability more than treatment with CC-99282 alone
same,"cell viability, response of the cells to the single agent",[1],moderately responsive
same,cell viability (sensitivity of the cells to the compound in combination),"[3]; SU-DHL-10, in the presence of 100 nM CPI-0209",lowered cell viability more than treatment with CC-99282 alone
same,cell viability (sensitivity of the cells to the compound in combination),"[3]; SU-DHL-10, in the presence of 100 nM SHR2554",lowered cell viability more than treatment with CC-99282 alone
same,"cell viability, response of the cells to the single agent",[2]; 5 days,moderately responsive
"COC1CN(C2CCC([C@@]3(C)Oc4c(Cl)cc(C(=O)NCc5c(SC)cc(C)[nH]c5=O)c(C)c4O3)CC2)C1 (stereo partly drawn) [CPI-0209, (2R)-7-chloro-2-(4-(3-methoxyazetidin-1-yl)cyclohexyl)-2,4-dimethyl-N-((6-methyl-4-(methylthio)-2-oxo-1,2-dihydropyridin-3-yl)methyl)benzo[d][1,3]dioxole-5-carboxamide]",cell viability (sensitivity of the cells to the compound in combination),[1]; [12],highly sensitive; also recorded: lowered cell viability more than treatment with CPI-0209 alone
same,cell viability (sensitivity of the cells to the compound in combination),[1]; [13],highly sensitive; also recorded: lowered cell viability more than treatment with CPI-0209 alone
same,"cell viability, response of the cells to the single agent",[1],modestly responsive
same,cell viability (sensitivity of the cells to the compound in combination),[2]; [14],highly sensitive; also recorded: lowered cell viability more than treatment with CPI-0209 alone
same,cell viability (sensitivity of the cells to the compound in combination),[2]; [15],highly sensitive; also recorded: lowered cell viability more than treatment with CPI-0209 alone
same,"cell viability, response of the cells to the single agent",[2]; 5 days,moderately responsive
"COc1cc(C)[nH]c(=O)c1CNC(=O)c1c(C)n([C@H](C)C2CCN(CC(F)(F)F)CC2)c2ccccc12 [CPI-1205, lirametostat]",cell viability (sensitivity of the cells to the compound in combination),[1]; [16],highly sensitive; also recorded: lowered cell viability more than treatment with CPI-1205 alone
same,cell viability (sensitivity of the cells to the compound in combination),[1]; [17],highly sensitive; also recorded: lowered cell viability more than treatment with CPI-1205 alone
same,cell viability (sensitivity of the cells to the compound in combination),[1]; [18],highly sensitive; also recorded: lowered cell viability more than treatment with CPI-1205 alone
same,cell viability (sensitivity of the cells to the compound in combination),[2]; [19],highly sensitive; also recorded: lowered cell viability more than treatment with CPI-1205 alone
same,cell viability (sensitivity of the cells to the compound in combination),[2]; [20],highly sensitive; also recorded: lowered cell viability more than treatment with CPI-1205 alone
same,cell viability (sensitivity of the cells to the compound in combination),[2]; [21],highly sensitive; also recorded: lowered cell viability more than treatment with CPI-1205 alone
"CC[C@H](C)n1cc(C)c2c(C(=O)NCc3c(C)cc(C)[nH]c3=O)cc(-c3ccc(N4CCNCC4)nc3)cc21 [GSK126, (S)-1-(sec-butyl)-N-((4,6-dimethyl-2-oxo-1,2-dihydropyridin-3-yl)methyl)-3-methyl-6-(6-(piperazin-1-yl)pyridin-3-yl)-1H-indole-4-carboxamide]",cell viability (sensitivity of the cells to the compound in combination),[1]; [16],highly sensitive; also recorded: lowered cell viability more than treatment with GSK126 alone
same,cell viability (sensitivity of the cells to the compound in combination),[1]; [17],highly sensitive; also recorded: lowered cell viability more than treatment with GSK126 alone
same,cell viability (sensitivity of the cells to the compound in combination),[1]; [18],highly sensitive; also recorded: lowered cell viability more than treatment with GSK126 alone
same,cell viability (sensitivity of the cells to the compound in combination),[2]; [19],highly sensitive; also recorded: lowered cell viability more than treatment with GSK126 alone
same,cell viability (sensitivity of the cells to the compound in combination),[2]; [20],highly sensitive; also recorded: lowered cell viability more than treatment with GSK126 alone
same,cell viability (sensitivity of the cells to the compound in combination),[2]; [21],highly sensitive; also recorded: lowered cell viability more than treatment with GSK126 alone
"CCc1c(N(CC)C2CCOCC2)cc2oc(CN3CCCCC3)cc2c1C(=O)NCc1c(C)cc(C)[nH]c1=O [SHR2554, N-((4,6-dimethyl-2-oxo-1,2-dihydropyridin-3-yl)methyl)-5-ethyl-6-(ethyl(tetrahydro-2H-pyran-4-yl)amino)-2-(piperidin-1-ylmethyl)benzofuran-4-carboxamide]",cell viability (sensitivity of the cells to the compound in combination),[1]; [12],highly sensitive; also recorded: lowered cell viability more than treatment with SHR2554 alone
same,cell viability (sensitivity of the cells to the compound in combination),[1]; [13],highly sensitive; also recorded: lowered cell viability more than treatment with SHR2554 alone
same,"cell viability, response of the cells to the single agent",[1],refractory
same,cell viability (sensitivity of the cells to the compound in combination),[2]; [14],highly sensitive; also recorded: lowered cell viability more than treatment with SHR2554 alone
same,cell viability (sensitivity of the cells to the compound in combination),[2]; [15],highly sensitive; also recorded: lowered cell viability more than treatment with SHR2554 alone
same,"cell viability, response of the cells to the single agent",[2]; 5 days,modestly responsive
